# Active and inactive are the calls of the source. No cut-off for these calls is given here.
# System: not listed separately
# Assay: Induction of cell cycle arrest in shRNA induced in human U87 cells assessed as accumulation at G2/M phase at 1 to 4 uM by propidium iodide staining based flow cytometric analysis relative to control (reference value: 14.95 %)
# Assay type: functional, U-87MG ATCC
# Settings: dose 1-4 µM
row,Compound,Activity [%]
1,OC1CC2CC1CN2c1ccnc(NCc2csc(-c3ccccc3)n2)n1 (stereo not given),21.31

# System: U-87MG ATCC
# Assay: Induction of apoptosis in human U87 cells by AnnexinV/PI staining assay
# Assay type: functional, cell-based
# Settings: dose 1-4 µM
row,Compound,Activity
1,OC1CC2CC1CN2c1ccnc(NCc2csc(-c3ccccc3)n2)n1 (stereo not given),Dose-Dependent Effect

# System: not listed separately
# Assay: Inhibition of cell invasion in human U87 cells assessed as reduction in number of cells invaded at 2 uM incubated for 24 hrs by matrigel-coated transwell assay (reference value: 154.3%)
# Assay type: functional, U-87MG ATCC
# Settings: not given
row,Compound,Activity
1,OC1CC2CC1CN2c1ccnc(NCc2csc(-c3ccccc3)n2)n1 (stereo not given),73

# System: not listed separately
# Assay: Induction of apoptosis in human U87 cells assessed as early apoptosis at 4 uM incubated for 36 hrs by AnnexinV/propidium iodide staining based flow cytometry method relative to control (reference value: 4.49 %)
# Assay type: functional, U-87MG ATCC
# Settings: not given
row,Compound,Activity [%]
1,OC1CC2CC1CN2c1ccnc(NCc2csc(-c3ccccc3)n2)n1 (stereo not given),21.42

# System: not listed separately
# Assay: Stability in mouse plasma assessed as half life
# Assay type: ADME, cell-free
# Settings: not given
row,half-life [h],Compound
1,2.1,OC1CC2CC1CN2c1ccnc(NCc2csc(-c3ccccc3)n2)n1 (stereo not given)

# System: not listed separately
# Assay: Antiproliferative activity against human U87 cells assessed as inhibition of cell growth incubated for 72 hrs by MTT assay
# Assay type: functional, cell-based, U-87MG ATCC
# Settings: U-87 MG
row,Compound,IC50 [µM]
1,CC(C)CNc1ccnc(NCc2csc(-c3ccc(Cl)cc3)n2)n1,16.6
2,CCCN(CCC)c1ccnc(NCc2csc(-c3ccccc3)n2)n1,16.4
3,CC(C)CNc1ccnc(NCc2csc(-c3ccccc3)n2)n1,37.9
4,OC1CC2CC1CN2c1ccnc(NCc2csc(-c3ccccc3)n2)n1 (stereo not given),3.29

# System: U-87MG ATCC
# Assay: Antitumor activity against human U87 cells xenografted in BALB/c mouse model assessed as tumor growth regression at 20 mg/kg, iv measured on day 20
# Assay type: functional, organism-based
# Settings: not given
row,Compound,Activity
1,OC1CC2CC1CN2c1ccnc(NCc2csc(-c3ccccc3)n2)n1 (stereo not given),Active

# System: not listed separately
# Assay: Induction of cell cycle arrest in human U87 cells assessed as increase in accumulation at G2/M phase at 4 uM after 36 hrs by propidium iodide staining based flow cytometric analysis relative to control (reference value: 15.3 %)
# Assay type: functional, U-87MG ATCC
# Settings: not given
row,Compound,Activity [%]
1,OC1CC2CC1CN2c1ccnc(NCc2csc(-c3ccccc3)n2)n1 (stereo not given),41.2

# System: not listed separately
# Assay: Inhibition of cell invasion in human U87 cells assessed as reduction in number of cells invaded at 4 uM incubated for 24 hrs by matrigel-coated transwell assay (reference value: 154.3%)
# Assay type: functional, U-87MG ATCC
# Settings: not given
row,Compound,Activity
1,OC1CC2CC1CN2c1ccnc(NCc2csc(-c3ccccc3)n2)n1 (stereo not given),42.3

# System: not listed separately
# Assay: Induction of apoptosis in human U87 cells assessed as late apoptosis at 4 uM incubated for 36 hrs by AnnexinV/propidium iodide staining based flow cytometry method relative to control (reference value: 0.52 %)
# Assay type: functional, U-87MG ATCC
# Settings: not given
row,Compound,Activity [%]
1,OC1CC2CC1CN2c1ccnc(NCc2csc(-c3ccccc3)n2)n1 (stereo not given),26.72

# System: not listed separately
# Assay: Inhibition of cell invasion in human U87 cells assessed as reduction in number of cells invaded at 1 uM incubated for 24 hrs by matrigel-coated transwell assay (reference value: 154.3%)
# Assay type: functional, U-87MG ATCC
# Settings: not given
row,Compound,Activity
1,OC1CC2CC1CN2c1ccnc(NCc2csc(-c3ccccc3)n2)n1 (stereo not given),119.7

# System: not listed separately
# Assay: Induction of cell cycle arrest in human U87 cells assessed as decrease in accumulation at G1 phase at 4 uM after 36 hrs by propidium iodide staining based flow cytometric analysis relative to control (reference value: 51.7 %)
# Assay type: functional, U-87MG ATCC
# Design: scale not given: the % may be the effect or the level left
# Settings: not given
row,Compound,Activity [%]
1,OC1CC2CC1CN2c1ccnc(NCc2csc(-c3ccccc3)n2)n1 (stereo not given),74.6

# System: SK-OV-3
# Assay: Antiproliferative activity against human SK-OV-3 cells assessed as cell growth inhibition measured after 72 hrs by MTT assay
# Assay type: functional, cell-based
# Settings: SK-OV-3, 72 h
row,IC50 [µM],Compound
1,34.1,CC(C)CNc1ccnc(NCc2csc(-c3ccc(Cl)cc3)n2)n1
2,22.2,CCCN(CCC)c1ccnc(NCc2csc(-c3ccccc3)n2)n1
3,21.4,CC(C)CNc1ccnc(NCc2csc(-c3ccccc3)n2)n1
4,8.21,OC1CC2CC1CN2c1ccnc(NCc2csc(-c3ccccc3)n2)n1 (stereo not given)

# System: not listed separately
# Assay: Induction of mitochondrial membrane potential loss in human U87 cells assessed as increase in green fluorescence intensity at 0 to 4 uM incubated for 36 hrs by JC-1 staining based flow cytometry relative to control (reference value: 9.34 %)
# Assay type: functional, U-87MG ATCC
# Settings: dose 0-4 µM
row,Compound,Activity [%]
1,OC1CC2CC1CN2c1ccnc(NCc2csc(-c3ccccc3)n2)n1 (stereo not given),48.58

# System: not listed separately
# Assay: Cytotoxicity against human U251 cells assessed as inhibition of cell growth measured after 72 hrs by MTT assay
# Assay type: toxicity, cell-based, U-251
# Settings: not given
row,Compound,IC50 at 72 h [µM]
1,CC(C)CNc1ccnc(NCc2csc(-c3ccc(Cl)cc3)n2)n1,18.5
2,CCCN(CCC)c1ccnc(NCc2csc(-c3ccccc3)n2)n1,16.2
3,CC(C)CNc1ccnc(NCc2csc(-c3ccccc3)n2)n1,49.1
4,OC1CC2CC1CN2c1ccnc(NCc2csc(-c3ccccc3)n2)n1 (stereo not given),5.61

# Molecular target: Transforming acidic coiled-coil-containing protein 3 (Homo sapiens) (UniProt Q9Y6A5)
# Assay: Inhibition of TACC3 in human U87 cells assessed as stabilization of protein by measuring shift in thermal melting curve at 10 uM incubated for 6 hrs by cellular thermal shift assay
# Assay type: cell-based
# Settings: not given
row,inhibition,Compound
1,Active,OC1CC2CC1CN2c1ccnc(NCc2csc(-c3ccccc3)n2)n1 (stereo not given)

# System: U-87MG ATCC
# Assay: Inhibition of cell migration in human U87 cells assessed as reduction in cell migration incubated for 24 hrs by wound healing assay
# Assay type: functional, cell-based
# Settings: not given
row,Compound,inhibition
1,OC1CC2CC1CN2c1ccnc(NCc2csc(-c3ccccc3)n2)n1 (stereo not given),Active

# System: U-87MG ATCC
# Assay: Induction of cell cycle arrest in human U87 cells assessed as increase in accumulation at G2/M phase at 2 uM after 24 hrs by propidium iodide staining based flow cytometric analysis
# Assay type: functional
# Settings: not given
row,Compound,Activity
1,OC1CC2CC1CN2c1ccnc(NCc2csc(-c3ccccc3)n2)n1 (stereo not given),Active

# System: not listed separately
# Assay: Antiproliferative activity against human HLF1 cells assessed as cell growth inhibition measured after 72 hrs by MTT assay
# Assay type: functional, cell-based
# Settings: HLF1, 72 h
row,Compound,IC50 [µM]
1,CC(C)CNc1ccnc(NCc2csc(-c3ccc(Cl)cc3)n2)n1,56.3
2,CCCN(CCC)c1ccnc(NCc2csc(-c3ccccc3)n2)n1,46.9
3,CC(C)CNc1ccnc(NCc2csc(-c3ccccc3)n2)n1,89.4
4,OC1CC2CC1CN2c1ccnc(NCc2csc(-c3ccccc3)n2)n1 (stereo not given),23.1

# System: JIMT-1
# Assay: Antiproliferative activity against human JIMT-1 cells assessed as cell growth inhibition measured after 72 hrs by MTT assay
# Assay type: functional, cell-based
# Settings: JIMT-1, 72 h
row,Compound,IC50 [µM]
1,CC(C)CNc1ccnc(NCc2csc(-c3ccc(Cl)cc3)n2)n1,26.9
2,CCCN(CCC)c1ccnc(NCc2csc(-c3ccccc3)n2)n1,16.9
3,CC(C)CNc1ccnc(NCc2csc(-c3ccccc3)n2)n1,33
4,OC1CC2CC1CN2c1ccnc(NCc2csc(-c3ccccc3)n2)n1 (stereo not given),4.84

# System: U-87MG ATCC
# Assay: Antitumor activity against human U87 cells xenografted in BALB/c mouse model assessed as increase in apoptotic cells at 20 mg/kg, iv by TUNEL assay
# Assay type: functional, organism-based
# Settings: not given
row,Compound,Activity
1,OC1CC2CC1CN2c1ccnc(NCc2csc(-c3ccccc3)n2)n1 (stereo not given),Active

# System: U-87MG ATCC
# Assay: Antiproliferative activity against shRNA mediated TACC3 knockdown human U87 cells assessed as reduction in cell viability
# Assay type: functional, cell-based
# Settings: not given
row,Compound,Activity
1,OC1CC2CC1CN2c1ccnc(NCc2csc(-c3ccccc3)n2)n1 (stereo not given),Active

# Molecular target: Transforming acidic coiled-coil-containing protein 3 (Homo sapiens) (UniProt Q9Y6A5)
# Assay: Inhibition of TACC3 in human U87 cells assessed as stabilization of protein by measuring shift in thermal melting curve at 10 uM in presence of pronase incubated for 6 hrs by cellular thermal shift assay
# Assay type: cell-based
# Settings: not given
row,inhibition,Compound
1,Active,OC1CC2CC1CN2c1ccnc(NCc2csc(-c3ccccc3)n2)n1 (stereo not given)

# System: not listed separately
# Assay: Antitumor activity against human U87 cells xenografted in BALB/c mouse model assessed as reduction in tumor weight at 20 mg/kg, iv measured on day 20
# Assay type: functional, U-87MG ATCC
# Design: scale not given: the % may be the effect or the level left
# Settings: not given
row,Compound,Activity [%]
1,OC1CC2CC1CN2c1ccnc(NCc2csc(-c3ccccc3)n2)n1 (stereo not given),72.7

# System: MDA-MB-231
# Assay: Antiproliferative activity against human MDA-MB-231 cells assessed as cell growth inhibition measured after 72 hrs by MTT assay
# Assay type: functional, cell-based
# Settings: MDA-MB-231, 72 h
row,IC50 [µM],Compound
1,18.3,CC(C)CNc1ccnc(NCc2csc(-c3ccc(Cl)cc3)n2)n1
2,23.2,CCCN(CCC)c1ccnc(NCc2csc(-c3ccccc3)n2)n1
3,31.1,CC(C)CNc1ccnc(NCc2csc(-c3ccccc3)n2)n1
4,6.46,OC1CC2CC1CN2c1ccnc(NCc2csc(-c3ccccc3)n2)n1 (stereo not given)

# System: U-87MG ATCC
# Assay: Induction of apoptosis in human U87 cells assessed as increase in number of apoptotic cells by Hoechst 33258 staining method
# Assay type: functional, cell-based
# Settings: not given
row,Compound,Activity
1,OC1CC2CC1CN2c1ccnc(NCc2csc(-c3ccccc3)n2)n1 (stereo not given),Active

# System: U-87MG ATCC
# Assay: Induction of ROS generation in human U87 cells at incubated for 36 hrs by DCF-DA based flow cytometry analysis
# Assay type: functional, cell-based
# Settings: dose 1-4 µM
row,Compound,Activity
1,OC1CC2CC1CN2c1ccnc(NCc2csc(-c3ccccc3)n2)n1 (stereo not given),Dose-Dependent Effect

# System: not listed separately
# Assay: Stability in human plasma assessed as half life
# Assay type: ADME, cell-free
# Settings: not given
row,half-life [h],Compound
1,4.2,OC1CC2CC1CN2c1ccnc(NCc2csc(-c3ccccc3)n2)n1 (stereo not given)

# System: U-87MG ATCC
# Assay: Antitumor activity against human U87 cells xenografted in BALB/c mouse model assessed as decrease in Ki67 positive cells at 20 mg/kg, iv
# Assay type: functional, organism-based
# Settings: not given
row,Compound,Activity
1,OC1CC2CC1CN2c1ccnc(NCc2csc(-c3ccccc3)n2)n1 (stereo not given),Active

# System: not listed separately
# Assay: Toxicity in BALB/c mouse transplanted with human U87 cells assessed as effect in body weight at 20 mg/kg, iv
# Assay type: organism-based, U-87MG ATCC
# Settings: in vivo
row,Compound,Activity
1,OC1CC2CC1CN2c1ccnc(NCc2csc(-c3ccccc3)n2)n1 (stereo not given),Non-Toxic

# System: not listed separately
# Assay: Cytotoxicity against human U87 cells assessed as reduction in cell viability measured after 24 hrs by MTT assay
# Assay type: toxicity, cell-based, U-87MG ATCC
# Settings: not given
row,Compound,IC50 at 24 h [µM]
1,OC1CC2CC1CN2c1ccnc(NCc2csc(-c3ccccc3)n2)n1 (stereo not given),27.5

# System: not listed separately
# Assay: Induction of ROS generation in human U87 cells at 4 uM incubated for 36 hrs by DCF-DA based flow cytometry analysis relative to control (Rvb= 4.01 %)
# Assay type: functional, U-87MG ATCC
# Settings: not given
row,Compound,Activity [%]
1,OC1CC2CC1CN2c1ccnc(NCc2csc(-c3ccccc3)n2)n1 (stereo not given),54.28
